## CC(CC1CCCCC1)C(CN)c1nnn[nH]1 (stereo not drawn)
  melting point: 216 °C (dec.)

## NCC(CC1CCCCC1)c1nnn[nH]1 (stereo not drawn)
  melting point: > 250 °C (dec.)

## CC(Cc1ccc(F)cc1)C(CN)c1nnn[nH]1 (stereo not drawn) [Example 26, 4-(4-Fluoro-phenyl)-3-methyl-2-(1H-tetrazol-5-yl)-butylamine]
  melting point: 186 °C (dec.)

## CC(C)CC1CC1(CN)C(=O)O.Cl (stereo not drawn)
  melting point: 254 to 255 °C

## CC(C)C1CC1(CN)c1noc(=O)[nH]1.Cl (stereo not drawn)
  melting point: 178 to 179 °C

## CC(CC1CCCC1)C(CN)c1nnn[nH]1 (stereo not drawn)
  melting point: 194 °C (dec.)

## CC(C)C(C)C(CN)c1nnn[nH]1 (stereo not drawn)
  melting point: > 250 °C (dec.)

## Cl.NCC1(c2noc(=O)[nH]2)CC12CCCCC2 (stereo not drawn)
  melting point: 179 to 181 °C (dec.)

## CC(C)C1CC1(CN)C(=O)O.Cl (stereo not drawn)
  melting point: 245 to 246 °C

## CC(Cc1cccc(C(F)(F)F)c1)C(CN)c1nnn[nH]1 (stereo not drawn)
  melting point: 163 °C (dec.)

## CC(C)CCC[C@@H](C)CCC(CN)c1nnn[nH]1 (stereo partly drawn)
  melting point: 185 °C (dec.)

## NCC1(C(=O)O)CC12CCCC2 (stereo not drawn)
  melting point: 231 to 235 °C (dec.)

## CCC(C(C)C)C(CN)c1nnn[nH]1 (stereo not drawn)
  melting point: 205 °C (dec.)

## CC(C)CC1CC1(CN)c1noc(=O)[nH]1.Cl (stereo not drawn)
  melting point: 181 to 182 °C

## CC(C)C1CC1(CN)c1nnn[nH]1 (stereo not drawn)
  melting point: > 250 °C (dec.)

## CC(CCc1ccccc1)C(CN)c1nnn[nH]1 (stereo not drawn)
  melting point: 152 °C (dec.)

## CCC(CC)C1CC1(CN)c1nnn[nH]1 (stereo not drawn)
  melting point: > 250 °C (dec.)

## Cl.NCC1(c2noc(=O)[nH]2)CC12CCCC2 (stereo not drawn)
  melting point: 206 to 208 °C
